From ChEMBL document CHEMBL1131278, “Synthesis and in vitro cancer cell growth inhibitory activity of monocyclic model compounds containing spongistatin triene side-chains” (Bioorg Med Chem Lett, 1998)
In brackets after ≈: the same amount, converted by molar mass.

How the values were obtained:
Format in all cases: functional
BXPC-3 = assay: In vitro growth inhibitory activity against cancer cell line Pancreas-a BXPC-3; settings: Homo sapiens
FaDu = assay: In vitro growth inhibitory activity against cancer cell line Pharynx-sq FADU; settings: Homo sapiens
SK-N-SH = assay: In vitro growth inhibitory activity against cancer cell line Neuroblast SK-N-SH; settings: Homo sapiens
NCI-H460 = assay: In vitro growth inhibitory activity against cancer cell line Lung-NSC NCI-H460; settings: Homo sapiens
DU-145 = assay: In vitro growth inhibitory activity against cancer cell line Prostate DU-145; settings: Homo sapiens
SW-1736 = assay: In vitro growth inhibitory activity against cancer cell line Thyroid ca SW 1736; settings: Homo sapiens
Tubulin alpha chain = Tubulin alpha chain (Sus scrofa, UniProt P02550); assay: Compound was tested for its ability to inhibit the glutamate induced polymerization of tubulin
Tubulin alpha chain, sequence (P02550 whole entry, looked up): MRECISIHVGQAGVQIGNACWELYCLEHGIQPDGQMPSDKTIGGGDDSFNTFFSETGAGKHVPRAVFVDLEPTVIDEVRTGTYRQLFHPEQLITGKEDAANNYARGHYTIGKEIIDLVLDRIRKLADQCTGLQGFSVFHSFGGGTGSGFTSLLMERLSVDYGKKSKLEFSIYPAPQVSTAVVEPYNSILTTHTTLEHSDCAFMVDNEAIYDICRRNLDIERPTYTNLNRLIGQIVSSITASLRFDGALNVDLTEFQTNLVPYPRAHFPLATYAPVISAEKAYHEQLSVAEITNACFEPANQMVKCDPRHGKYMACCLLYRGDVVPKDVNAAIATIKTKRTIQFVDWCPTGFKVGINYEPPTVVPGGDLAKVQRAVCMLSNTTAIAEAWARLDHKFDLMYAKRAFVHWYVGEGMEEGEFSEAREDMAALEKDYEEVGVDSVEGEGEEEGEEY

GI50 (BXPC-3) [µg/mL]	GI50 (SK-N-SH) [µg/mL]	GI50 (NCI-H460) [µg/mL]	GI50 (DU-145) [µg/mL]	GI50 (SW-1736) [µg/mL]	Structure (SMILES)	GI50 (FaDu) [µg/mL]	IC50 (Tubulin alpha chain) [µM]
0.25 (≈ 0.438 µM)	0.31 (≈ 0.543 µM)	0.26 (≈ 0.456 µM)	0.32 (≈ 0.561 µM)	0.7 (≈ 1.23 µM)	C=C/C=C/[C@@H](O)CC(=C)C[C@H]1O[C@H](OC)[C@H](OCc2ccccc2)[C@@H](OCc2ccccc2)[C@@H]1OCc1ccccc1	0.27 (≈ 0.473 µM)	
					C=C(Cl)/C=C/[C@@H](O)C(C)C(=C)C[C@H]1O[C@@H]2[C@H](C)[C@@H](OC(=O)C[C@H]3C[C@H](OC(C)=O)C[C@@]4(C[C@@](C)(O)C[C@H](CC(=C)[C@@H](C)[C@H](OC(C)=O)[C@H](C)C(=O)C[C@@H]5C[C@H](OC)C[C@@]6(C[C@@H](O)C[C@H](/C=C\CCC[C@H]7O[C@](O)(C[C@H](O)[C@H]7C)[C@H]2O)C6)O5)O4)O3)[C@@H]1O (stereo partly drawn) [Spongistatin-1]		3.6
3.2 (≈ 5.29 µM)	2.2 (≈ 3.64 µM)	6.6 (≈ 10.9 µM)	> 10	5.8 (≈ 9.58 µM)	C=C(Cl)/C=C/[C@@H](O)CC(=C)C[C@H]1O[C@H](OC)[C@H](OCc2ccccc2)[C@@H](OCc2ccccc2)[C@@H]1OCc1ccccc1	5 (≈ 8.26 µM)	
